Assay results taken from ChEMBL document CHEMBL4118186 (Bioorg Med Chem Lett, 2018).
pIC50: −log10 of the molar value.

Target: T1, Proteasome Macropain subunit MB1 (Homo sapiens, UniProt P28074)
T1 sequence (P28074 whole entry): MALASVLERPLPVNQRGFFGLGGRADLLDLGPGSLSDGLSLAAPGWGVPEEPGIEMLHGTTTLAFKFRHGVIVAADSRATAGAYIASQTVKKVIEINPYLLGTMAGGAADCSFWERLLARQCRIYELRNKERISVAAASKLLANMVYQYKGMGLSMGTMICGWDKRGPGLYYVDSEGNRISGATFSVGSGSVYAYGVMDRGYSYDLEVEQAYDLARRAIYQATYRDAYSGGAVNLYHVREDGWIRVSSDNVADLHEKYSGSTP
Assay: Inhibition of chymotrypsin-like activity of human 20S proteasome using Suc-Leu-Leu-Val-Tyr-AMC as substrate after 1 hr by fluorescence analysis

| pIC50 | Structure (SMILES) |
| --- | --- |
| 6.90 | CC(C)C[C@H](NC(=O)[C@H](Cc1ccccc1)Oc1ccccc1)B(O)O |
| 7.19 | CC(C)C[C@H](NC(=O)[C@H](Cc1ccccc1)NCc1cnccn1)B(O)O |
| 7.04 | CC(C)C[C@H](NC(=O)[C@H](Cc1ccccc1)NCc1cccc2ccccc12)B(O)O |
| 7.44 | CC(C)C[C@H](NC(=O)[C@H](Cc1ccccc1)OCc1ccccc1)B(O)O |
| 6.56 | CC(C)C[C@H](NC(=O)[C@H](Cc1ccccc1)Oc1cccc2ccccc12)B(O)O |
| 8.01 | CC(C)C[C@H](NC(=O)[C@H](Cc1ccccc1)NCc1ccccc1)B(O)O |
| 7.28 | CC(C)C[C@H](NC(=O)[C@H](Cc1ccccc1)OCc1cnccn1)B(O)O |
| 6.81 | CC(C)C[C@H](NC(=O)[C@H](Cc1ccccc1)Oc1cnccn1)B(O)O |
| 6.72 | CC(C)C[C@H](NC(=O)[C@H](Cc1ccccc1)Nc1cnccn1)B(O)O |
| 6.78 | CC(C)C[C@H](NC(=O)[C@H](Cc1ccccc1)Nc1cccc2ccccc12)B(O)O |
| 6.96 | CC(C)C[C@H](NC(=O)[C@H](Cc1ccccc1)OCc1cccc2ccccc12)B(O)O |
| 6.47 | CC(C)C[C@H](NC(=O)[C@H](Cc1ccccc1)Nc1ccccc1)B(O)O |

Tested on: not listed separately
Assay: Metabolic stability in human liver microsomes at 1 uM preincubated for 5 mins followed by NADP+ addition measured up to 40 mins by LC/MS method
Type: ADME, microsome

| Stability | Structure (SMILES) |
| --- | --- |
| Stable | CC(C)C[C@H](NC(=O)[C@H](Cc1ccccc1)NCc1ccccc1)B(O)O |

Tested on: not listed separately
Assay: Metabolic stability in BALB/c mouse liver microsomes at 1 uM preincubated for 5 mins followed by NADP+ addition measured up to 40 mins by LC/MS method
Type: ADME, microsome

| Stability | Structure (SMILES) |
| --- | --- |
| Stable | CC(C)C[C@H](NC(=O)[C@H](Cc1ccccc1)NCc1ccccc1)B(O)O |
